Measurements taken from patent US10307413B2, “Tetrahydro- and dihydro-isoquinoline PRMT5 inhibitors and uses thereof” (Epizyme, Inc., priority 2013, dated 2019).
Read-outs that look alike come from different tables or passages of the source.

Columns and labels:
[1] = molecular target: PRMT5/MEP50 (Homo sapiens (Human), UniProt O14744); assay: PRMT5 Biochemical Assay (PRMT5/MEP50 enzyme assay on peptide substrate, 3H-SAM Flashplate); conditions: PRMT5 biochemical assay
In short: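 Radiometric methylation of a biotin-tagged H4(1-15) peptide by human PRMT5/MEP50 from baculovirus/Sf9, with ³H-SAM incorporation read on streptavidin Flashplates. Buffer: Bicine pH 7.6, TCEP, BSG, Tween20; compound preincubated 30 min at 25 °C; stopped with 600 µM final unlabeled SAM. DMSO and SAH controls; IC50 from fitted % inhibition.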

[2] = tested on: symmetric di-methyl arginine in Z-138 cells; assay: Z-138 Methylation Assay (In Cell Western for symmetric di-methyl arginine and DNA content); assay type: cell-based; conditions: Homo sapiens, In Cell Western methylation, read-out: ICW EC50
In short: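 In-cell western: symmetric di-methyl arginine signal ratioed to DRAQ5 DNA content after 96 h compound exposure of Z-138 cells seeded at 50,000 cells/mL.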

[3] = tested on: Z-138 cell line; assay: Z-138 Proliferation Assay (Cell Titer Glo, 5 days); assay type: cell-based; conditions: Homo sapiens, read-out: Proliferation EC50
In short: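 Viability via CellTiter-Glo luminescence (ATP) after 5-day incubation at 37 °C, 5% CO2. Compounds tested in triplicate, nine 3-fold steps, highest final concentration 20 μM in 0.2% DMSO; 50% inhibitory concentration by 4-parameter fit of normalized curves.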

[4] = 120 h, Z-138 cells, 5 days, Cell Titer Glo

PRMT5/MEP50, sequence (O14744 other isoform, or with tags, fused parts or gaps): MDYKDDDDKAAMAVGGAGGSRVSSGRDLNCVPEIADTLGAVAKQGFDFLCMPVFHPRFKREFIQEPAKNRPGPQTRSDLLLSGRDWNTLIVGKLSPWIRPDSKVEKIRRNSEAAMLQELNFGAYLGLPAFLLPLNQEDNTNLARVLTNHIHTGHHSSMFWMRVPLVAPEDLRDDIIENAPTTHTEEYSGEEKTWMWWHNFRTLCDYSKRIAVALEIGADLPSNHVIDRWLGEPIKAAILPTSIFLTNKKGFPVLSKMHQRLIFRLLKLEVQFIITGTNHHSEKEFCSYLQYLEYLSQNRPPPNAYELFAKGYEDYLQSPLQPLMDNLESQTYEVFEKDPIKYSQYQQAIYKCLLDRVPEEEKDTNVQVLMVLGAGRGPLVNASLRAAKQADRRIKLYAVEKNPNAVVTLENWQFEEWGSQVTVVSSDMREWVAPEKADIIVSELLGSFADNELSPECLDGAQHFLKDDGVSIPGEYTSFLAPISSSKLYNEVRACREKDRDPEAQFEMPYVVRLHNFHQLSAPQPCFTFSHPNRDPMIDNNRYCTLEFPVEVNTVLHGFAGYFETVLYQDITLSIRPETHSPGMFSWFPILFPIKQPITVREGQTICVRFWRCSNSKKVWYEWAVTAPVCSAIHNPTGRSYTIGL
PRMT5/MEP50, sequence (Q9BQA1 other isoform, or with tags, fused parts or gaps partner): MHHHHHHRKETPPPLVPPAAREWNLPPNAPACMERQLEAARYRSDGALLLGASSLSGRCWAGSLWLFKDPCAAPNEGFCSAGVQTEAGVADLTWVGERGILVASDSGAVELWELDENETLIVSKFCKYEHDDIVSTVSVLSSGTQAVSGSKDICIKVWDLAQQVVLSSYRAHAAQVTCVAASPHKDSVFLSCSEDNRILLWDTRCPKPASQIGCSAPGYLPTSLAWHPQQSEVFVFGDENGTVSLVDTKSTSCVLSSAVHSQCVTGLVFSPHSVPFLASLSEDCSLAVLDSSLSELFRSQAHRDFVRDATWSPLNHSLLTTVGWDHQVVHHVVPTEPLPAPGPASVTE

| Structure (SMILES) | IC50 [1] | EC50 [2] | EC50 [3, 4] | EC50 ([3]; Z-138, 120 h) |
| --- | --- | --- | --- | --- |
| CN(C)CCN(C)c1nc(NC2COC2)cc(C(=O)NC[C@H](O)CN2CCc3ccccc3C2)n1 [Compound 525] | < 0.1 µM | < 0.1 µM | 0.101 to 1 µM |  |
| O=C(NC[C@H](O)CN1CCc2ccccc2C1)c1cc(NC2COC2)nc(N2CCC2)n1 [Compound 526] | < 0.1 µM | < 0.1 µM | 0.101 to 1 µM |  |
| CC(C)(C)c1nc(NC2COC2)cc(C(=O)NC[C@H](O)CN2CCc3ccccc3C2)n1 [Compound 527] | < 0.1 µM | < 0.1 µM | 0.101 to 1 µM |  |
| CN(C)CCN(C)c1nc(NC2CNC2)cc(C(=O)NC[C@H](O)CN2CCc3ccccc3C2)n1 [Compound 528] | < 0.1 µM | 0.101 to 1 µM | 0.101 to 1 µM |  |
| CN(C)c1nc(NC2CNC2)cc(C(=O)NC[C@H](O)CN2CCc3ccccc3C2)n1 [Compound 529] | < 0.1 µM | 0.101 to 1 µM | 0.101 to 1 µM |  |
| O=C(NC[C@H](O)CN1CCc2ccccc2C1)c1ccnc(NC2CN(C(=O)C3CCC3)C2)c1 [Compound 530] | < 0.1 µM | < 0.1 µM | < 0.1 µM |  |
| COCC(=O)N1CC(Nc2cc(C(=O)NC[C@H](O)CN3CCc4ccccc4C3)ncn2)C1 [Compound 531] | < 0.1 µM | < 0.1 µM | 0.101 to 1 µM |  |
| NC(=O)CN1CCC(Nc2cc(C(=O)NC[C@H](O)CN3CCc4ccccc4C3)ncn2)CC1 [Compound 532] | < 0.1 µM | < 0.1 µM | 0.101 to 1 µM |  |
| CNC(=O)CN1CCC(Nc2cc(C(=O)NC[C@H](O)CN3CCc4ccccc4C3)ncn2)CC1 [Compound 533] | < 0.1 µM | < 0.1 µM | < 0.1 µM |  |
| CC(NC(=O)c1cc(NC2CCNCC2)ncn1)C(O)CN1CCc2ccccc2C1 (stereo not drawn) [Compound 534] | 0.101 to 1 µM | > 1 µM | > 5 µM |  |
| CC(NC(=O)c1cc(NC2CCN(C)CC2)ncn1)C(O)CN1CCc2ccccc2C1 (stereo not drawn) [Compound 535] | 0.101 to 1 µM | 0.101 to 1 µM | > 5 µM |  |
| CC(=O)N1CCC(Nc2cc(C(=O)NC(C)C(O)CN3CCc4ccccc4C3)ncn2)CC1 (stereo not drawn) [Compound 536] | < 0.1 µM | < 0.1 µM | 0.101 to 1 µM |  |
| COC(CNC(=O)c1cc(NC2CCNCC2)ncn1)CN1CCc2ccccc2C1 (stereo not drawn) [Compound 538] | 1 to 10 µM | > 1 µM | > 5 µM |  |
| COC(CNC(=O)c1cc(NC2CCN(C)CC2)ncn1)CN1CCc2ccccc2C1 (stereo not drawn) [Compound 540] | 1 to 10 µM | > 1 µM | > 5 µM |  |
| COC(CNC(=O)c1cc(NC2CCN(C(C)=O)CC2)ncn1)CN1CCc2ccccc2C1 (stereo not drawn) [Compound 542] | 0.101 to 1 µM | 0.101 to 1 µM | > 5 µM |  |
| O=C(NC[C@H](O)CN1CCc2ccccc2C1)c1cnnc(NC2CCOC2)c1 (stereo partly drawn) [Compound 544] | < 0.1 µM | < 0.1 µM | 0.101 to 1 µM |  |
| O=C(NC[C@H](O)CN1CCc2ccccc2C1)c1cnnc(NC2COC2)c1 [Compound 545] | < 0.1 µM | < 0.1 µM | 1 to 10 µM |  |
| CC(=O)N1CC(Nc2cc(C(=O)NC[C@H](O)CN3CCc4ccccc4C3)nc(C(C)(C)C)n2)C1 [Compound 546] | < 0.1 µM | < 0.1 µM | < 0.1 µM |  |
| O=C(NC[C@H](O)CN1CCc2ccccc2C1)c1cc(NC2COC2)nc(NC2COC2)n1 [Compound 547] | < 0.1 µM | < 0.1 µM | < 0.1 µM |  |
| O=C(NC[C@H](O)CN1CCc2ccccc2C1)C1=CC2=N[C@H](CO)CN2C=N1 [Compound 548] | 0.101 to 1 µM | > 1 µM | > 5 µM |  |
| O=C(NC[C@H](O)CN1CCc2ccccc2C1)c1cc(NC2CCNCC2)ccn1 [Compound 549] | < 0.1 µM | 0.101 to 1 µM | > 5 µM |  |
| COCCN1CCC(Nc2ccnc(C(=O)NC[C@H](O)CN3CCc4ccccc4C3)c2)CC1 [Compound 550] | < 0.1 µM | < 0.1 µM | 1 to 10 µM |  |
| CC(=O)N1CCC(Nc2ccnc(C(=O)NC[C@H](O)CN3CCc4ccccc4C3)c2)CC1 [Compound 551] | < 0.1 µM | < 0.1 µM | < 0.1 µM |  |
| CC(NC(=O)c1cc(NC2CCN(C(=O)C3CC3)CC2)ncn1)C(O)CN1CCc2ccccc2C1 (stereo not drawn) [Compound 552] | < 0.1 µM | < 0.1 µM | 0.101 to 1 µM |  |
| COC(CNC(=O)c1cc(NC2CCN(C(=O)C3CC3)CC2)ncn1)CN1CCc2ccccc2C1 (stereo not drawn) [Compound 553] | < 0.1 µM | 0.101 to 1 µM | > 5 µM |  |
| CSCCNc1cc(C(=O)NC[C@H](O)CN2CCc3ccccc3C2)ncn1 [Compound 554] | < 0.1 µM | < 0.1 µM | 0.101 to 1 µM |  |

| Structure (SMILES) | IC50 [1] | EC50 [2] | EC50 [3, 4] | EC50 ([3]; Z-138, 120 h) |
| --- | --- | --- | --- | --- |
| CS(=O)(=O)CCNc1cc(C(=O)NC[C@H](O)CN2CCc3ccccc3C2)ncn1 [Compound 555] | < 0.1 µM | 0.101 to 1 µM | 1 to 10 µM |  |
| CCSCCNc1cc(C(=O)NC[C@H](O)CN2CCc3ccccc3C2)ncn1 [Compound 556] | < 0.1 µM | < 0.1 µM |  | 0.101 to 1 µM |
| O=C(NC[C@H](O)CN1CCc2ccccc2C1)c1cc(NC2CC3(COC3)C2)ncn1 [Compound 557] | < 0.1 µM | < 0.1 µM | < 0.1 µM |  |
| O=C(NC[C@H](O)CN1CCc2ccccc2C1)c1cc(N[C@H]2C[C@H](N3CCOCC3)C2)ncn1 [Compound 558] | < 0.1 µM | < 0.1 µM | 0.101 to 1 µM |  |
| CO[C@H]1C[C@H](Nc2cc(C(=O)NC[C@H](O)CN3CCc4ccccc4C3)ncn2)C1 [Compound 559] | < 0.1 µM | < 0.1 µM | 0.101 to 1 µM |  |
| COCCO[C@H]1C[C@@H](Nc2cc(C(=O)NC[C@H](O)CN3CCc4ccccc4C3)ncn2)C1 [Compound 560] | < 0.1 µM | < 0.1 µM | 0.101 to 1 µM |  |
| COCCN(CCOC)[C@H]1C[C@H](Nc2cc(C(=O)NC[C@H](O)CN3CCc4ccccc4C3)ncn2)C1 [Compound 561] | < 0.1 µM | < 0.1 µM | 0.101 to 1 µM |  |
| COCCN(CCOC)[C@H]1C[C@@H](Nc2cc(C(=O)NC[C@H](O)CN3CCc4ccccc4C3)ncn2)C1 [Compound 562] | < 0.1 µM | < 0.1 µM | 0.101 to 1 µM |  |
| CO[C@H]1C[C@@H](Nc2cc(C(=O)NC[C@H](O)CN3CCc4ccccc4C3)ncn2)C1 [Compound 563] | < 0.1 µM | < 0.1 µM | 0.101 to 1 µM |  |
| CC(=O)N(C)[C@H]1C[C@H](Nc2cc(C(=O)NC[C@H](O)CN3CCc4ccccc4C3)ncn2)C1 [Compound 564] | < 0.1 µM | < 0.1 µM | 0.101 to 1 µM |  |
| O=C(NC[C@H](O)CN1CCc2ccccc2C1)c1cc(NC2CNC2)ccn1 [Compound 565] | < 0.1 µM | < 0.1 µM | 0.101 to 1 µM |  |
| O=C(NC[C@H](O)CN1CCc2ccccc2C1)c1cc(NC2CCN(C(=O)C3CCC3)CC2)ccn1 [Compound 566] | < 0.1 µM | < 0.1 µM | < 0.1 µM |  |
| CN(C)C(=O)CN1CCC(Nc2cc(C(=O)NC[C@H](O)CN3CCc4ccccc4C3)ncn2)CC1 [Compound 567] | < 0.1 µM | < 0.1 µM | 0.101 to 1 µM |  |
| CSCCN1CC(Nc2cc(C(=O)NC[C@H](O)CN3CCc4ccccc4C3)ncn2)C1 [Compound 568] | < 0.1 µM | 0.101 to 1 µM | 1 to 10 µM |  |
| CS(=O)(=O)CCN1CCC(Nc2cc(C(=O)NC[C@H](O)CN3CCc4ccccc4C3)ncn2)CC1 [Compound 569] | < 0.1 µM | < 0.1 µM | 0.101 to 1 µM |  |
| CCSCCN1CCC(Nc2cc(C(=O)NC[C@H](O)CN3CCc4ccccc4C3)ncn2)CC1 [Compound 570] | < 0.1 µM | < 0.1 µM |  | 1 to 10 µM |
| CC(=O)N1CCC[C@@H](Nc2cc(C(=O)NC[C@H](O)CN3CCc4ccccc4C3)ncn2)C1 [Compound 571] | < 0.1 µM | < 0.1 µM | 1 to 10 µM |  |
| CC(=O)N1CCC[C@H](Nc2cc(C(=O)NC[C@H](O)CN3CCc4ccccc4C3)ncn2)C1 [Compound 572] | < 0.1 µM | < 0.1 µM | 0.101 to 1 µM |  |
| CC1c2ccccc2CCN1C[C@@H](O)CNC(=O)c1cc(NC2COC2)ncn1 (stereo partly drawn) [Compound 573] | 0.101 to 1 µM | 0.101 to 1 µM | > 5 µM |  |
| CCC(=O)N1CC(Nc2cc(C(=O)NC[C@H](O)CN3CCc4ccccc4C3)ncn2)C1 [Compound 574] | < 0.1 µM | < 0.1 µM | < 0.1 µM |  |
| CN1CC(Nc2ccnc(C(=O)NC[C@H](O)CN3CCc4ccccc4C3)c2)C1 [Compound 575] | < 0.1 µM | < 0.1 µM | > 5 µM |  |
| COCCN1CC(Nc2ccnc(C(=O)NC[C@H](O)CN3CCc4ccccc4C3)c2)C1 [Compound 576] | < 0.1 µM | < 0.1 µM | 1 to 10 µM |  |
| O=C(NC[C@H](O)CN1CCc2ccccc2C1)c1cc(NC2CN(C(=O)C3CCC3)C2)ccn1 [Compound 577] | < 0.1 µM | < 0.1 µM | < 0.1 µM |  |
| CC(C)(O)CN1CCC(Nc2cc(C(=O)NC[C@H](O)CN3CCc4ccccc4C3)ncn2)CC1 [Compound 579] | < 0.1 µM | < 0.1 µM | 0.101 to 1 µM |  |
| CS(=O)(=O)CCN1CC(Nc2cc(C(=O)NC[C@H](O)CN3CCc4ccccc4C3)ncn2)C1 [Compound 580] | < 0.1 µM | 0.101 to 1 µM | > 5 µM |  |
